Results from patent publication US20220402916A1, “SMALL MOLECULE INHIBITORS OF KRAS G12C MUTANT” (Merck Sharp & Dohme Corp., priority 2019, published 2022).
Where two headings read alike, the source gives them in different places.

Legend:
[1] = target: T1, Biotinylated KRAS G12C protein (Homo sapiens, UniProt P01116, C118S/C51S/C80L/G12C); experiment: SOS-catalyzed nucleotide exchange assay; type: biochemical; settings: apparent potency; preincubation time of 60 minutes prior to addition of SOS
T1 construct: 183 amino acids; biotin on K10
T1 sequence (P01116 with tags, fused parts or gaps isoform P01116-2 G12C/C51S/C80L/C118S): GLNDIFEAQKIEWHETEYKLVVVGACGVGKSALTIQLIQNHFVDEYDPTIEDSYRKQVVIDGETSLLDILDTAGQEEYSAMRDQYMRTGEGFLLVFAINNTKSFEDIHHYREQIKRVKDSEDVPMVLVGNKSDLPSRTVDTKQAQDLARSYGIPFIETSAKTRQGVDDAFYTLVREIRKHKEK

NCI-H358 cells = experiment: Cellular phospho-ERK assay; type: cell-based; settings: NCI-H358 cells, 2 hour incubation, ratio of p-Erk vs total Erk, read-out: IC50
Procedure: NCI-H358 cells (ATCC® CRL-5807™) were cultured in T150 flask in growth medium (RPMI medium 1640-GlutaMAX™-1 (ThermoFisher Scientific 61870) containing 10% fetal bovine serum (ThermoFisher Scientific 10091148)). The cells were harvested in growth medium after TrypLE (ThermoFisher scientific 12604021) digestion and were seeded in 384-well collagen coated cell culture plate (Corning 356702) at a density of 15,000 cells/well, and incubated at 37° C., 5% CO2 overnight. The compound dose-response titrations were prepared and appropriate amounts of compounds were dispensed in 384-well intermediate plate using Echo 550 liquid handler. RPMI medium 1640-GlutaMAX™-I were added to the intermediate plate and transferred to 384-well cell culture plate, which was incubated at 37° C., 5% CO2 for 2 hours. After removal of medium from the plate, cells were lysed in lysis buffer from Alpha SureFire® Ultra™ Multiplex p-Erk and total Erk assay kit (PerkinElmer MPSU-PTERK) containing Halt™ Protease and Phosphotase inhibitor cocktail (ThermoFisher Scientific 78446) at room temperature with constant shaking at 300 rpm for 30 minutes. The cell lysates were then transferred to OptiPlate-384 plate (PerkinElmer 6005620) and the phosphorylation of Erk and total Erk levels were detected by Alpha SureFire Ultra Multiplex p-Erk kit (PerkinElmer MPSU-PTERK) following the manufacturer's protocol. Assay plates were read on an EnVision Multimode Plate Reader (PerkinElmer) and the ratio of p-Erk vs total Erk in each well was used as the final readout. Dose response curves were analyzed using a 4-parameter logistic model to calculate IC50 values using spotfire software.

Compound | IC50 [1] [nM] | IC50 (NCI-H358 cells; Homo sapiens, NCI-H358, 2 h) [nM] | IC50 (NCI-H358 cells) [nM]
C=CC(=O)N1CCN(c2cc(C(=O)NC[C@@H]3CCCN3)nc3c2CCN(c2cccc4cccc(C)c24)C3)C[C@@H]1CC#N [Compound 97, 4-((S)-4-acryloyl-3-(cyanomethyl)piperazin-1-yl)-7-(8-methylnaphthalen-1-yl)-N-(((S)-pyrrolidin-2-yl)methyl)-5,6,7,8-tetrahydro-1,7-naphthyridine-2-carboxamide] | 15 | 2480 | –
C=CC(=O)N1CCN(c2cc(C(=O)NCC[C@H]3CCCN3)nc3c2CCN(c2cccc4cccc(C)c24)C3)C[C@@H]1CC#N [Compound 104, 4-((S)-4-acryloyl-3-(cyanomethyl)piperazin-1-yl)-7-(8-methylnaphthalen-1-yl)-N-(2-((R)-pyrrolidin-2-yl)ethyl)-5,6,7,8-tetrahydro-1,7-naphthyridine-2-carboxamide] | 12 | 4900 | –
C=CC(=O)N1CCN(c2cc(C(=O)N[C@H](C)CN(C)C)nc3c2CCN(c2cccc4cccc(C)c24)C3)CC1 [Compound 12, (R)-4-(4-acryloylpiperazin-1-yl)-N-(1-(dimethylamino)propan-2-yl)-7-(8-methylnaphthalen-1-yl)-5,6,7,8-tetrahydro-1,7-naphthyridine-2-carboxamide] | 66 | 5940 | –

These reach a lower IC50 [1]. Values come first.

IC50 [1] [nM] | IC50 (NCI-H358 cells; Homo sapiens, NCI-H358, 2 h) [nM] | IC50 (NCI-H358 cells) [nM] | Compound
1 | 41 | – | C=CC(=O)N1CCN(c2cc(C(=O)N[C@@H]3CCC[C@H]3N(C)C)nc3c2CCN(c2cccc4cccc(C)c24)C3)C[C@@H]1CC#N (mixture of isomers) [Compound 66, 4-((S)-4-acryloyl-3-(cyanomethyl)piperazin-1-yl)-N-((1R,2R)-2-(dimethylamino)cyclopentyl)-7-(8-methylnaphthalen-1-yl)-5,6,7,8-tetrahydro-1,7-naphthyridine-2-carboxamide, as a mixture with 4-((S)-4-acryloyl-3-(cyanomethyl)piperazin-1-yl)-N-((1S,2S)-2-(dimethylamino)cyclopentyl)-7-(8-methylnaphthalen-1-yl)-5,6,7,8-tetrahydro-1,7-naphthyridine-2-carboxamide]
0.9 | 96 | – | C=CC(=O)N1CCN(c2cc(C(=O)N[C@H](C)CN(C)C)nc3c2CCN(c2c(Cl)c(C)cc4[nH]ncc24)C3)C[C@@H]1CC#N [Compound 84, 4-((S)-4-acryloyl-3-(cyanomethyl)piperazin-1-yl)-7-(5-chloro-6-methyl-1H-indazol-4-yl)-N—((R)-1-(dimethylamino)propan-2-yl)-5,6,7,8-tetrahydro-1,7-naphthyridine-2-carboxamide]
11 | 1650 | – | C=CC(=O)N1CCN(c2cc(C(=O)NC[C@H](C)N)nc3c2CCN(c2cccc4cccc(C)c24)C3)C[C@@H]1CC#N [Compound 86, 4-((S)-4-acryloyl-3-(cyanomethyl)piperazin-1-yl)-N—((S)-2-aminopropyl)-7-(8-methylnaphthalen-1-yl)-5,6,7,8-tetrahydro-1,7-naphthyridine-2-carboxamide]
9.7 | – | 257 | C=CC(=O)N1CCN(c2cc(C(=O)NC(C)CN3CCC(C)(O)C3)nc3c2CCN(c2cccc4cccc(C)c24)C3)C[C@@H]1CC#N (single isomer, unassigned) [Compound 73, 4-((S)-4-acryloyl-3-(cyanomethyl)piperazin-1-yl)-N—((R or S)-1-((R or S)-3-hydroxy-3-methylpyrrolidin-1-yl)propan-2-yl)-7-(8-methylnaphthalen-1-yl)-5,6,7,8-tetrahydro-1,7-naphthyridine-2-carboxamide]
8.8 | 375 | – | C=CC(=O)N1CCN(c2cc(C(=O)NCCN(C)C)nc3c2CCN(c2cccc4ccccc24)C3)C[C@@H]1CC#N [Compound 60, (S)-4-(4-acryloyl-3-(cyanomethyl)piperazin-1-yl)-N-(2-(dimethylamino)ethyl)-7-(naphthalen-1-yl)-5,6,7,8-tetrahydro-1,7-naphthyridine-2-carboxamide]
